Reference: patent US20250100994A1, “CDK12/13 COVALENT INHIBITORS OR PHARMACEUTICAL COMPOSITION THEREOF, AND USES THEREOF” (The Regents of the University of Michigan, priority 2023, published 2025)

Columns and labels:
CDK12 = CDK12 (Homo sapiens (Human), UniProt Q9NYV4); assay: LANCE Ultra kinase assay, CDK12; format: biochemical; conditions: 30 nM enzyme, 60 min pre-incubation, ULight-4E-BP1 150 nM; read-out: CDK12 IC50
Method: (§1) The inhibitory activities of the test compound on the kinases were evaluated by LANCE Ultra assay, which was used for detecting ATP-dependent phosphorylation of a ULight-4E-BP1 (Thr37/Thr46) substrate peptide (150 nM). In short, enzymatic reactions were performed in a reaction buffer (25 mM HEPES (pH 7.5), 10 mM MgCl2, 0.01% BSA, 0.01% Tween 20, and 1 mM DTT). The assay was performed in a 384-well plate (6 μL). A final concentration of an ATP substrate was […], and a final concentration of the ULight-4E-BP1 (Thr37/Thr46) substrate peptide was 150 nM. A final concentration of CDK9, CDK12, or CDK13 was 0.3, 30, or 30 nM, respectively. Pre-incubation of the compound and the enzyme was performed at room temperature for 60 min. The reaction was stopped by adding 10 mM EDTA and 0.15 nM Eu-labeled anti-phospho-eIF4E-binding protein 1 (Thr37/46) antibody in LANCE detection buffer after incubation at room temperature for 15, 60, or 90 min. Time-resolved fluorescence (excitation, 320 nm; emission donor, 615 nm; emission acceptor, 665 nm) was monitored using an EnVision spectrophotometer (PerkinElmer). Readings were computed as (acceptor count/donor count)×1000. IC50 values were derived by fitting a sigmoidal dose-response curve to a plot of assay readouts of inhibitor concentrations. All fittings were computed using program Prism 5.03 (GraphPad Software, San Diego, CA).

CDK13 = CDK13 (Homo sapiens (Human), UniProt Q14004); assay: LANCE Ultra kinase assay, CDK13; format: biochemical; conditions: 30 nM enzyme, 60 min pre-incubation, ULight-4E-BP1 150 nM; read-out: CDK13 IC50
CDK13, sequence (Q14004 whole entry, looked up): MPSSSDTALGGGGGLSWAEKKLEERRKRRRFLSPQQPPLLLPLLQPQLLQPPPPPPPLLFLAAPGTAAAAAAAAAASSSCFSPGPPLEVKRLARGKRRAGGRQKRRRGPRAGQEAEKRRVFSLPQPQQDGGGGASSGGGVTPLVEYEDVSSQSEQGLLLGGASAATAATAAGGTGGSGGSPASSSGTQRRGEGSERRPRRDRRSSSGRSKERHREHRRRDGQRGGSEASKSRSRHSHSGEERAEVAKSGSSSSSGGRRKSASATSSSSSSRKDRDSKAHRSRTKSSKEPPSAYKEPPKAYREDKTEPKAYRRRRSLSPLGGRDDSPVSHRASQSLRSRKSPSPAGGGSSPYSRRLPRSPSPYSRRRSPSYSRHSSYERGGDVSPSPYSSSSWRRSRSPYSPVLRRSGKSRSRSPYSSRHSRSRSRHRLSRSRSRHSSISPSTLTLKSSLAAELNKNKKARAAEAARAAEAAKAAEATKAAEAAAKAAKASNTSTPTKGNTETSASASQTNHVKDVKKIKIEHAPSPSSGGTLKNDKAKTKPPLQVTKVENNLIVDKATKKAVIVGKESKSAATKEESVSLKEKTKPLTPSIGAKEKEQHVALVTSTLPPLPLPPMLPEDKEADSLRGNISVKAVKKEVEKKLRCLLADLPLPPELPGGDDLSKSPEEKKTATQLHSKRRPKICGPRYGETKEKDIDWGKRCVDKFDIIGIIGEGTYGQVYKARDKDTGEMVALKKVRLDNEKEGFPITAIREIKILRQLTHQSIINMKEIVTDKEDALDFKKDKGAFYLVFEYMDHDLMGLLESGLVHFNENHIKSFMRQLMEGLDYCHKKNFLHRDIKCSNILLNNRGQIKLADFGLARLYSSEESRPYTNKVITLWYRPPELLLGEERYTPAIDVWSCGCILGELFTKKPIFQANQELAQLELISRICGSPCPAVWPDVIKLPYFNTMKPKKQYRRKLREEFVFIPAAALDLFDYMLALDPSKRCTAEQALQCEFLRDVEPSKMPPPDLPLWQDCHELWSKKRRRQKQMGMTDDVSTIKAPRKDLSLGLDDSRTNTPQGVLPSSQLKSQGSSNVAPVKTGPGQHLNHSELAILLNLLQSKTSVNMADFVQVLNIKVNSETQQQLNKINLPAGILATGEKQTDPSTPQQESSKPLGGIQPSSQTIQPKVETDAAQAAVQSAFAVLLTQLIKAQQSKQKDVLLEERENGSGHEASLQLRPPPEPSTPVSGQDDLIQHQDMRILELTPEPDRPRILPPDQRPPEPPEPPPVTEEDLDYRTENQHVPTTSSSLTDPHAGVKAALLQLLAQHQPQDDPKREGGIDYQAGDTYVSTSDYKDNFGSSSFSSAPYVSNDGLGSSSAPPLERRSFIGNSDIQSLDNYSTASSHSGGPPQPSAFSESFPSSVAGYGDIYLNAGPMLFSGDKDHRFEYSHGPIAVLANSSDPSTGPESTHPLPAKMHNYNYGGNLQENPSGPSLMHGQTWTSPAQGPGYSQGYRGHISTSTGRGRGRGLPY
CDK13, sequence (O75909 whole entry partner, looked up): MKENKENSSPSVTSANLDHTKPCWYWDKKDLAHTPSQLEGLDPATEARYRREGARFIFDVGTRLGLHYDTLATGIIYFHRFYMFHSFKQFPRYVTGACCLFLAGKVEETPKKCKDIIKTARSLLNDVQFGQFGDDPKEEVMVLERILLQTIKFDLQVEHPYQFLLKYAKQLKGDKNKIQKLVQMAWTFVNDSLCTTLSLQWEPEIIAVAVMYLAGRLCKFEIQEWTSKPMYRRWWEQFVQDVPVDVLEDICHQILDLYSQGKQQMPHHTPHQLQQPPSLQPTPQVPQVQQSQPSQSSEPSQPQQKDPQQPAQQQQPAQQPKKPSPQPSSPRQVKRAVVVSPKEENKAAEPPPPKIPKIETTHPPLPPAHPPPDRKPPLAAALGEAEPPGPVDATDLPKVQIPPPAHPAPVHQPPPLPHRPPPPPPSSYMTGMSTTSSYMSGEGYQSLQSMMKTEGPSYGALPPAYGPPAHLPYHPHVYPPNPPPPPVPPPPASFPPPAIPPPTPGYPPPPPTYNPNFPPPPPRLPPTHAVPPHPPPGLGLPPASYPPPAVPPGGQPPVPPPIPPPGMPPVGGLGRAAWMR
Method: as §1

CDK12, sequence (Q9NYV4 whole entry): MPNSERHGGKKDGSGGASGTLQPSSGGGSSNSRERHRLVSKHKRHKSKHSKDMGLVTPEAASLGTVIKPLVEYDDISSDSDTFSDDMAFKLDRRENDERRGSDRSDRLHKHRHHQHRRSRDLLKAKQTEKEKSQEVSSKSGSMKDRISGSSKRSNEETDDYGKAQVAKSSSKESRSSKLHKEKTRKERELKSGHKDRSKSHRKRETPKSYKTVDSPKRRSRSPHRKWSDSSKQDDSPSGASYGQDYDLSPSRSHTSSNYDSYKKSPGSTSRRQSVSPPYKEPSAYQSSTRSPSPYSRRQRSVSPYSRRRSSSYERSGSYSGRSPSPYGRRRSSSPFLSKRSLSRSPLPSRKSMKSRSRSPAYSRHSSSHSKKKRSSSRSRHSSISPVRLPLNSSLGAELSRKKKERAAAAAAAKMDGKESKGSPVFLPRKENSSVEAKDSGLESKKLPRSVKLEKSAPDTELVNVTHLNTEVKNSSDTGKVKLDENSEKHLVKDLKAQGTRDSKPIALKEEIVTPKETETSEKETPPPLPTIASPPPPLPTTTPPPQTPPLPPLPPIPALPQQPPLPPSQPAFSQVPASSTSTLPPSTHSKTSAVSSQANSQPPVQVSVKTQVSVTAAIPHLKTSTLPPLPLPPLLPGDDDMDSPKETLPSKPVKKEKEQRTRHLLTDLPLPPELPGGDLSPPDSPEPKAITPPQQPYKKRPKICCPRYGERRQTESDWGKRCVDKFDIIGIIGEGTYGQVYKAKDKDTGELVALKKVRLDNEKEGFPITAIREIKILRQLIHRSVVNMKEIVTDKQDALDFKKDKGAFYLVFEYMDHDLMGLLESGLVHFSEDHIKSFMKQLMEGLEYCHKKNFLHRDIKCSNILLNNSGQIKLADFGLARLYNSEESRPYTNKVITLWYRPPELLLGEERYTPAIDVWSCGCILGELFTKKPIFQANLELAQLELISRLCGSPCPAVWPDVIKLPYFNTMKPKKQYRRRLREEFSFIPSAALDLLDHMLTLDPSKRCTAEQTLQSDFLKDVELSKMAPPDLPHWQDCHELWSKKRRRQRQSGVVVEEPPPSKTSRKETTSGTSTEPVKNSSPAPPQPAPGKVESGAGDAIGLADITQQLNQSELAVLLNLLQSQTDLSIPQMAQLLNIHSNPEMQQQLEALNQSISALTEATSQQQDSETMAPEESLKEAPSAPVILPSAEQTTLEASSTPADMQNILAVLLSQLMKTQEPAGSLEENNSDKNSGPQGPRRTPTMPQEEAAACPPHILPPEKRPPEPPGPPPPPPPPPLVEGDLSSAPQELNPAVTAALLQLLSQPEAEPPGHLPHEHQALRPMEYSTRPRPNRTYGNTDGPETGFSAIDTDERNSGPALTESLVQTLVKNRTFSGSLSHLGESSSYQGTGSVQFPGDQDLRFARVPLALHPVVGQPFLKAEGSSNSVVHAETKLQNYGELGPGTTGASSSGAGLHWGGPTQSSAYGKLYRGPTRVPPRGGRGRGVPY
CDK12, sequence (O75909 whole entry partner): as the sequence (O75909 whole entry partner, looked up) above

Structure (SMILES): C=CC(=O)Nc1cc(N(C(=O)NCC2CC2)[C@H]2CC[C@H](Nc3ccc(C#N)cn3)CC2)ccc1N1CCN(C)[C@@H](C)C1 [YJZ1025, N-(5-(1-((1r,4S)-4-((5-cyanopyridin-2-yl)amino)cyclohexyl)-3-(cyclopropylmethyl)ureido)-2-((S)-3,4-dimethylpiperazin-1-yl)phenyl)acrylamide]
- IC50 (CDK12): 50 to 500 nM
- IC50 (CDK13): 50 to 500 nM

Structure (SMILES): C=CC(=O)Nc1cc(N(C(=O)NCC2COC2)[C@H]2CC[C@H](Nc3ccc(C#N)cn3)CC2)ccc1N1CCN(C)[C@@H](C)C1 [YJZ1031, N-(5-(1-((1r,4S)-4-((5-cyanopyridin-2-yl)amino)cyclohexyl)-3-(oxetanyl-3-ylmethyl)ureido)-2-((S)-3,4-dimethylpiperazin-1-yl)phenyl)acrylamide]
- IC50 (CDK12): > 500 nM
- IC50 (CDK13): > 500 nM

Structure (SMILES): C=CC(=O)Nc1cc(N(C(=O)NCc2cnn(C)c2)[C@H]2CC[C@H](Nc3ccc(C#N)cn3)CC2)ccc1N1CCN(C)[C@@H](C)C1 [YJZ1033, N-(5-(1-((1r,4S)-4-((5-cyanopyridin-2-yl)amino)cyclohexyl)-3-((1-methyl-1H-pyrazol-4-yl)methyl)ureido)-2-((S)-3,4-dimethylpiperazin-1-yl)phenyl)acrylamide]
- IC50 (CDK12): > 500 nM
- IC50 (CDK13): 50 to 500 nM

Structure (SMILES): C=CC(=O)Nc1cc(N(C(=O)NCc2ccccc2Cl)[C@H]2CC[C@H](Nc3ccc(C#N)cn3)CC2)ccc1N1CCN(C)[C@@H](C)C1 [YJZ1060, N-(5-(3-(2-chlorobenzyl)-1-((1r,4S)-4-((5-cyanopyridin-2-yl)amino)cyclohexyl)ureido)-2-((S)-3,4-dimethylpiperazin-1-yl)phenyl)acrylamide]
- IC50 (CDK12): < 15 nM
- IC50 (CDK13): < 15 nM

Structure (SMILES): C=CC(=O)Nc1cc(N(C(=O)NCc2cccnc2)[C@H]2CC[C@H](Nc3ccc(C#N)cn3)CC2)ccc1N1CCN(C)[C@@H](C)C1 [YJZ1061, N-(5-(1-((1r,4S)-4-((5-cyanopyridin-2-yl)amino)cyclohexyl)-3-(pyridin-3-ylmethyl)ureido)-2-((S)-3,4-dimethylpiperazin-1-yl)phenyl)acrylamide]
- IC50 (CDK12): 50 to 500 nM
- IC50 (CDK13): 50 to 500 nM

Structure (SMILES): C=CC(=O)Nc1cc(N(C(=O)NCc2cocn2)[C@H]2CC[C@H](Nc3ccc(C#N)cn3)CC2)ccc1N1CCN(C)[C@@H](C)C1 [YJZ1063, N-(5-(1-((1r,4S)-4-((5-cyanopyridin-2-yl)amino)cyclohexyl)-3-(oxazol-4-ylmethyl)ureido)-2-((S)-3,4-dimethylpiperazin-1-yl)phenyl)acrylamide]
- IC50 (CDK12): 50 to 500 nM
- IC50 (CDK13): 50 to 500 nM

Structure (SMILES): C=CC(=O)Nc1cc(N(C(=O)NCC(F)(F)F)[C@H]2CC[C@H](Nc3ccc(C#N)cn3)CC2)ccc1N1CCN(C)[C@@H](C)C1 [YJZ1065, N-(5-(1-((1r,4S)-4-((5-cyanopyridin-2-yl)amino)cyclohexyl)-3-(2,2,2-trifluoroethyl)ureido)-2-((S)-3,4-dimethylpiperazin-1-yl)phenyl)acrylamide]
- IC50 (CDK12): 50 to 500 nM
- IC50 (CDK13): 50 to 500 nM

Structure (SMILES): C=CC(=O)Nc1cc(N(C(=O)NCc2ccccc2)[C@H]2CC[C@H](Nc3ccc(C(F)(F)F)cn3)CC2)ccc1N1CCN(C)[C@@H](C)C1 [YJZ1066, N-(5-(3-benzyl-1-((1r,4S)-4-((5-(trifluoromethyl)pyridin-2-yl)amino)cyclohexyl)ureido)-2-((S)-3,4-dimethylpiperazin-1-yl)phenyl)acrylamide]
- IC50 (CDK12): 15 to 50 nM
- IC50 (CDK13): < 15 nM

Structure (SMILES): C=CC(=O)Nc1cc(N(C(=O)NCc2ccccc2)[C@H]2CC[C@H](Nc3ccc(Cl)cn3)CC2)ccc1N1CCN(C)[C@@H](C)C1 [YJZ1070, N-(5-(3-benzyl-1-((1r,4S)-4-((5-chloropyridin-2-yl)amino)cyclohexyl)ureido)-2-((S)-3,4-dimethylpiperazin-1-yl)phenyl)acrylamide]
- IC50 (CDK12): 15 to 50 nM
- IC50 (CDK13): 15 to 50 nM

Structure (SMILES): C=C(F)C(=O)Nc1cc(N(C(=O)NCc2ccccc2)[C@H]2CC[C@H](Nc3ccc(C#N)cn3)CC2)ccc1N1CCN(C)[C@@H](C)C1 [YJZ1072, N-(5-(3-benzyl-1-((1r,4S)-4-((5-cyanopyridin-2-yl)amino)cyclohexyl)ureido)-2-((S)-3,4-dimethylpiperazin-1-yl)phenyl)-2-fluoroacrylamide]
- IC50 (CDK12): 50 to 500 nM
- IC50 (CDK13): 15 to 50 nM

Structure (SMILES): C=CC(=O)Nc1cc(N(C(=O)NCc2ccccc2)[C@H]2CC[C@H](Nc3ccc(C#N)cn3)CC2)ccc1N1CCN(C)CC1 [YJZ5114, N-(5-(3-benzyl-1-((1r,4r)-4-((5-cyanopyridin-2-yl)amino)cyclohexyl)ureido)-2-(4-methylpiperazin-1-yl)phenyl)acrylamide]
- IC50 (CDK12): 50 to 500 nM
- IC50 (CDK13): 50 to 500 nM

Structure (SMILES): C=CC(=O)Nc1cc(N(C(=O)NCc2ccccc2)[C@H]2CC[C@H](Nc3ccc(C#N)cn3)CC2)ccc1Br [YJZ6048, N-(5-(3-benzyl-1-((1r,4r)-4-((5-cyanopyridin-2-yl)amino)cyclohexyl)ureido)-2-bromophenyl)acrylamide]
- IC50 (CDK12): 15 to 50 nM
- IC50 (CDK13): < 15 nM

Structure (SMILES): C=CC(=O)Nc1cc(N(C(=O)NCc2ccc(F)cc2)[C@H]2CC[C@H](Nc3ccc(C#N)cn3)CC2)ccc1N1CCN(C)[C@@H](C)C1 [YJZ9166, N-(5-(1-((1r,4S)-4-((5-cyanopyridin-2-yl)amino)cyclohexyl)-3-(4-fluorobenzyl)ureido)-2-((S)-3,4-dimethylpiperazin-1-yl)phenyl)acrylamide]
- IC50 (CDK12): 15 to 50 nM
- IC50 (CDK13): 15 to 50 nM

Structure (SMILES): C=CC(=O)Nc1cc(N(C(=O)N[C@@H](C)c2ccccc2)[C@H]2CC[C@H](Nc3ccc(C#N)cn3)CC2)ccc1N1CCN(C)[C@@H](C)C1 [YJZ9170, N-(5-(1-((1r,4S)-4-((5-cyanopyridin-2-yl)amino)cyclohexyl)-3-((S)-1-phenylethyl)ureido)-2-((S)-3,4-dimethylpiperazin-1-yl)phenyl)acrylamide]
- IC50 (CDK12): 15 to 50 nM
- IC50 (CDK13): 15 to 50 nM

Structure (SMILES): C=CC(=O)Nc1cc(N(C(=O)NCc2ccccc2)[C@H]2CC[C@H](Nc3ccc(C#N)cn3)CC2)cnc1N1CCN(C)[C@@H](C)C1 [YJZ9171, N-(5-(3-benzyl-1-((1r,4S)-4-((5-cyanopyridin-2-yl)amino)cyclohexyl)ureido)-2-((S)-3,4-dimethylpiperazin-1-yl)pyridin-3-yl)acrylamide]
- IC50 (CDK12): < 15 nM
- IC50 (CDK13): 15 to 50 nM

Structure (SMILES): C=CC(=O)Nc1cc(N(C(=O)NC2CC2)[C@H]2CC[C@H](Nc3ccc(C#N)cn3)CC2)ccc1N1CCN(C)[C@@H](C)C1 [YJZ9173, N-(5-(1-((1r,4S)-4-((5-cyanopyridin-2-yl)amino)cyclohexyl)-3-cyclopropylureido)-2-((S)-3,4-dimethylpiperazin-1-yl)phenyl)acrylamide]
- IC50 (CDK12): 50 to 500 nM
- IC50 (CDK13): 50 to 500 nM

Structure (SMILES): C=CC(=O)Nc1cc(N(C(=O)N[C@H](C)c2ccccc2)[C@H]2CC[C@H](Nc3ccc(C#N)cn3)CC2)ccc1N1CCN(C)[C@@H](C)C1 [YJZ9176, N-(5-(1-((1r,4R)-4-((5-cyanopyridin-2-yl)amino)cyclohexyl)-3-((R)-1-phenylethyl)ureido)-2-((S)-3,4-dimethylpiperazin-1-yl)phenyl)acrylamide]
- IC50 (CDK12): > 500 nM
- IC50 (CDK13): 50 to 500 nM

Structure (SMILES): C=CC(=O)Nc1cc(N(C(=O)NCc2cccc(F)c2)[C@H]2CC[C@H](Nc3ccc(C#N)cn3)CC2)ccc1N1CCN(C)[C@@H](C)C1 [YJZ9177, N-(5-(1-((1r,4S)-4-((5-cyanopyridin-2-yl)amino)cyclohexyl)-3-(3-fluorobenzyl)ureido)-2-((S)-3,4-dimethylpiperazin-1-yl)phenyl)acrylamide]
- IC50 (CDK12): 15 to 50 nM
- IC50 (CDK13): < 15 nM
